Key:
[1] = Drug release profile of spray-coated balloons, PBS then methanol elution, UV (Example 4); format: physicochemical
Description: The technique of spray coating was introduced using a 5% solution of high molecular weight polymer PEG-PPO-PEG (Mn=14,600) in methanol. This spray coating method was used to add multiple layers of coating and ensured the correct area of the balloon was coated in a more precise fashion.
In this example, a set of experiments was conducted to assess the drug release profiles of Sirolimus and Dipyridamole. The samples were spray coated with their coating solutions with nitrogen gas at 1 bar, and 20 rotations were done (10 clockwise and 10 anticlockwise). The separation from the balloon and spray nozzle was approximately 15 cm.
The drug release profiles of both Dipyridamole and Sirolimus were determined using an excipient polymer PEG-PPO-PEG (Mn=14,600) with organic carrier solvent methanol. The coating solution quantities can be found in Table 3.
The resulting coated balloons were eluted in 8 mL of PBS for 3 minutes, before being eluted into 8 mL of methanol for 5 minutes, for full release of the coating.

[2] = Simulated tracking and deployment (ASTM F3320-18) into hydrogel mock-vessel (Examples 14-17); format: physicochemical; conditions: single drug
Description: In this example, a hydrogel was used to mimic the arterial tissue wall to assess the drug release profile and simulate the tracking and deployment process.
Based on the process described in ASTM F3320-18, folded balloons were pushed through a 37° C. heated anatomical model filled with PBS for 30 seconds. At the end of the track, balloons were then inflated to nominal pressure inside the hydrogel for 1 minute. The PBS inside the track was collected and replaced, and the balloon withdrawn back through the track. The PBS in the track was collected, and the coated balloon was inflated to nominal pressure for a final drug release in methanol for 5 minutes. The drug concentration in the two PBS samples and methanol sample was measured by UV-VIS. This was used to calculate the drug dose delivered to the hydrogel site.
In this example, the drug release profiles of balloons dip coated with methanol solutions containing 20% excipient Pluronic F108 and 8% of either dipyridamole or sirolimus were assessed. After coating, the balloons were dried and folded.
In this example, balloons were spray coated with a methanol solution containing 1% excipient Pluronic F108, and 2% of either dipyridamole or sirolimus. After drying and folding the balloons were sterilised.

Post-PBS reading @415 nm ([1]; 8 mL PBS 3 minutes, spray coated, PEG-PPO-PEG Mn 14,600): 0.042
Post-Methanol reading @415 nm ([1]; 8 mL methanol 5 minutes after PBS elution): 0.087
drug released during elution time ([1]; printed '5-minute elution time', from UV reading and calibration coefficient, PEG-PPO-PEG polymer): 32.6%
loaded drug released during deployment to the hydrogel target site ([2]; spray coated, 1% Pluronic F108 and 2% drug, sterilised): 71.1%
Compound: OCCN(CCO)c1nc(N2CCCCC2)c2nc(N(CCO)CCO)nc(N3CCCCC3)c2n1 [dipyridamole]
drug lost when tracking to the site ([2]; dip coated, 20% Pluronic F108 and 8% drug): considerably less dipyridamole than sirolimus was lost

Source: patent US20260158194A1, “DRUG COATED BALLOON” (ARTERIUS LIMITED, priority 2021, published 2026)
